IC50 data for 9 compounds are collected here from patent publication US5936097A, “4,9-ethano-benzo(F)isoindole derivatives as farnesyl transferase inhibitors” (Rhone-Poulenc Rorer, S.A., priority 1995, dated 1999).

Structures are written as SMILES.

For one assay, the target named is T1, human farnesyl transferase (Homo sapiens, UniProt P49354+P49356).
T1 construct: human farnesyl transferase purified from THP1 cell cultures; endogenous in cells; host or cells: THP1 cell cultures (enzyme purified from the cells)
Kind of assay: inhibition of farnesyl transferase ((3H) farnesyl transfer from (3H) FPP to p21 H-ras). Format: biochemical.
Conditions: not given
In outline: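 Radiometric transfer of [3H]farnesyl from 4.5 pmol [3H]FPP to 200 pmol p21 H-ras by ~5 ng human enzyme purified from THP1 cells, in 50 mM Tris-HCl, 5 mM MgCl2, 5 mM DTT, 0.2% octyl glucoside, 20 min at 37 °C. Protein precipitated with SDS/TCA in methanol, filter-bound counts measured; IC50 from 9 concentrations, triplicate.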
Turning to `CCOP(=O)(C[C@]12CN(C(=O)Cc3ccccc3OC)C[C@H]1[C@@]1(c3ccccc3)CC[C@@H]2c2ccccc21)OCC` (relative stereo) [Example 22, diethyl ester of [(3aRS, 4SR, 9SR, 9aRS)-4,9-ethano-2-(2-methoxyphenyl)acetyl-9-phenyl-2,3,3a,4,9,9a-hexahydro-1H-benzo[f]isoindol-3a-yl]methylphosphonic acid], the IC50 was determined as 10000 nM.

The assay is the same for the next values; noted with them: human farnesyl transferase purified from THP1 cell cultures; p21 H-ras substrate; 20 minutes at 37° C.; 9 concentrations; read-out: in vitro inhibitory activity IC50.
Turning to `C=C(C(=O)N1C[C@H]2[C@@]3(c4ccccc4)CC[C@H](c4ccccc43)[C@@]2(C(=O)NC(C#N)c2ccccc2)C1)c1ccccc1OC` (stereo partly drawn) [Example 87, (3aS,4R,9R,9aS)-N-[1-(R,S)-1-cyano-1-phenylmethyl]-4,9-ethano-2-[(2-methoxyphenyl)prop-2-en-1-oyl]-9-phenyl-2,3,3a,4,9,9a-hexahydro-1H-benzo[f]isoindole-3a-carboxamide], the concentration for half-maximal inhibition (IC50) was 250 nM.
On to `CC(C)Oc1ccccc1CC(=O)N1C[C@@H]2[C@]3(c4ccccc4)CC[C@@H](c4ccccc43)[C@]2(C(=O)O)C1` (relative stereo) [Example 40, (3aRS,4SR,9SR,9aRS)-4,9-ethano-2-(2-isopropyl-oxyphenyl)acetyl-9-phenyl-2,3,3a,4,9,9a-hexahydro-1H-benzo[f]isoindole-3a-carboxylic acid], for which the IC50 is 2950 nM.
As for `COc1ccccc1CC(=O)N1C[C@H]2[C@@]3(c4ccccc4)CC[C@H](c4ccccc43)[C@@]2(CSCCC(=O)O)C1` (relative stereo) [Example 26, 3-[(3aRS, 4SR, 9SR, 9aRS)-4,9-ethano-2-(2-methoxyphenyl)acetyl-9-phenyl-2,3,3a,4,9,9a-hexahydro-1H-benzo[f]isoindol-3a-yl]methylthiopropanoic acid], the 50% inhibitory concentration (IC50) worked out at 2300 nM.
Regarding `COC(=O)CNC(=O)[C@]12CN(C(=O)Cc3ccccc3OC)C[C@H]1[C@@]1(c3ccccc3)CC[C@@H]2c2ccccc21` (relative stereo) [Example 69, methyl ester of N-[(3aRS,4SR,9SR,9aRS)-4,9-ethano-2-(2-methoxyphenyl)acetyl-9-phenyl-2,3,3a,4,9,9a-hexahydro-1H-benzo[f]isoindol-3a-yl]carbonylglycine], the concentration for half-maximal inhibition (IC50) is 9100 nM.
On the same count and under the same terms, the result for `C=C(C(=O)N1C[C@H]2[C@@]3(c4ccccc4)CC[C@H](c4ccccc43)[C@@]2(C(=O)NCc2ccc(C(F)(F)F)cc2)C1)c1ccccc1OC` [Example 92, (3aS,4R,9R,9aS)-N-[4-trifluorobenzyl]-[4,9-ethano-2-(2-methoxyphenyl)prop-2-en-1-oyl]-9-phenyl-2,3,3a,4,9,9a-hexahydro-1H-benzo[f]isoindole-3a-carboxamide] reads 4800 nM; that for `C=C(C(=O)N1C[C@H]2[C@@]3(c4ccccc4)CC[C@H](c4ccccc43)[C@@]2(C(=O)NCc2ccc(OC)c(OC)c2)C1)c1ccccc1OC` [Example 90, (3aS,4R,9R,9aS)-N-(3,4-dimethoxybenzyl)-4,9-ethano-2-[(2-methoxyphenyl)prop-2-en-1-oyl]-9-phenyl-2,3,3a,4,9,9a-hexahydro-1H-benzo[f]isoindole-3a-carboxamide], 970 nM.
Still for that read-out and setting: the result for `COc1ccccc1CC(=O)N1C[C@H]2[C@@]3(c4ccccc4)CC[C@H](c4ccccc43)[C@@]2(C(=O)N(C)OC)C1` (relative stereo) [Example 68, (3aRS,4SR,9SR,9aRS)-N-methoxy-N-methyl-4,9-ethano-2-(2-methoxy-phenyl)acetyl-9-phenyl-2,3,3a,4,9,9a-hexahydro-1H-benzo[f]isoindole-3a-carboxamide] reads 2250 nM.
For the compound `O=C(Cc1cccc2c1OCCC2)N1C[C@H]2[C@@]3(c4ccccc4)CC[C@H](c4ccccc43)[C@@]2(C(=O)O)C1` (relative stereo) [Example 76, (3aRS,4SR,9SR,9aRS)-2-(8-chromanyl)acetyl-4,9-ethano-9-phenyl-2,3,3a,4,9,9a-hexahydro-1H-benzo[f]isoindole-3a-carboxylic acid], the half-inhibitory concentration (IC50) stood at 3650 nM.
